# Experimental data taken from ChEMBL document CHEMBL4387774, “Design, synthesis, and evaluation of a water soluble C5-monoketone type curcumin analogue as a potent amyloid β aggregation inhibitor” (Bioorg Med Chem Lett, 2019).
# Activity calls are given as the source filed them. The calls are words filed in the database; no cut-off is given here.
# Key:
# [1] = Antioxidant activity assessed as DPPH radical scavenging activity measured after 30 mins; format: functional
# [2] = target: Amyloid-beta precursor protein (Homo sapiens) (UniProt P05067); experiment: Inhibition of self-induced amyloid beta 42 (unknown origin) aggregation at 10 uM incubated for 20 hrs by thioflavin-T fluorescence assay relative to control
# [3] = target: Amyloid-beta precursor protein (Homo sapiens) (UniProt P05067); experiment: Inhibition of self-induced amyloid beta 42 (unknown origin) fibril formation at 10 uM incubated for 6 hrs by thioflavin-T fluorescence assay relative to control
# [4] = Aqueous solubility of the compound at 1 mg measured after 12 hrs by shake flask method; format: physicochemical; conditions: water
# [5] = Cytotoxicity against rat PC12 cells measured after 24 hrs by WST8/PMS assay; format: cell-based, PC-12
# [6] = target: Amyloid-beta precursor protein (Homo sapiens) (UniProt P05067); experiment: Inhibition of self-induced amyloid beta 42 (unknown origin) aggregation at 1 uM incubated for 20 hrs by thioflavin-T fluorescence assay relative to control
# [7] = target: Amyloid-beta precursor protein (Homo sapiens) (UniProt P05067); experiment: Disaggregation of self-induced amyloid beta 42 (unknown origin) preformed fibrils assessed as appearance of nanorod-like fragment by […] analysis
# [8] = target: Amyloid-beta precursor protein (Homo sapiens) (UniProt P05067); experiment: Disaggregation of self-induced amyloid beta 42 (unknown origin) preformed fibrils assessed as length of nanorod-like fragment by TEM analysis
# Chain of Amyloid-beta precursor protein (Homo sapiens) (P05067 whole entry, the tested form may be a part): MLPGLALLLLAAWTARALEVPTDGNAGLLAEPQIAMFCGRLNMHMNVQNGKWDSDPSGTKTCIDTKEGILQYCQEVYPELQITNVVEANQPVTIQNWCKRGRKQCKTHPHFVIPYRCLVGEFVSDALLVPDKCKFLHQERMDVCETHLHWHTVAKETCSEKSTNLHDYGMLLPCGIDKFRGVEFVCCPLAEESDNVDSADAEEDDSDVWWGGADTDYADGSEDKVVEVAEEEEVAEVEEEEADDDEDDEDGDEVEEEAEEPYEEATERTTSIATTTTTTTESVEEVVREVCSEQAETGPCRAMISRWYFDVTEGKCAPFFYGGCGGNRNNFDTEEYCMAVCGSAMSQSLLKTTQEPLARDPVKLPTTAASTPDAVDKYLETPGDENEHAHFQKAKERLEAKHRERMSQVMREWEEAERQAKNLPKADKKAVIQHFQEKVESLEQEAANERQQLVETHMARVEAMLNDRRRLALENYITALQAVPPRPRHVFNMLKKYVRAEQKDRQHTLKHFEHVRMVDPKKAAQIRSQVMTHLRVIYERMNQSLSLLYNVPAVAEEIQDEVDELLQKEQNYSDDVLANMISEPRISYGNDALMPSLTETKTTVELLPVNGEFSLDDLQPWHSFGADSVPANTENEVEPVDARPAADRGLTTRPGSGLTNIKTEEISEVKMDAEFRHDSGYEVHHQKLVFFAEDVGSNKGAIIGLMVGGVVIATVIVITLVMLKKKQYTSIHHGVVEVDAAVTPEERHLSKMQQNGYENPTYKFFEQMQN
IC50 [1],inhibition [2],inhibition [3],solubility thermodynamic at 12 h [4],inhibition [6],Activity [7],Activity [8],Structure (SMILES),CC50 at 24 h [5]
19 µM,98%,95 to 100%,3.8 µM,–,–,–,O=C(/C=C/c1ccc(O)c(O)c1)CC(=O)/C=C/c1cccc(O)c1O,16 µM
40 µM,–,–,120 µM,96%,–,–,O=C(/C=C/c1ccc(O)cc1)/C=C/c1cccc(O)c1O,12 µM
48 µM,–,–,33 µM,98%,–,–,O=C(/C=C/c1cccc(O)c1O)c1cc(O)ccc1O,89 µM
16 µM,–,–,77 µM,90%,–,–,O=C(/C=C/c1ccccc1O)CC(=O)c1ccc(O)c(O)c1,> 90 µM
82 µM,–,–,47 µM,98%,–,–,O=C(/C=C/c1cc(O)ccc1O)CC(=O)c1ccc(O)c(O)c1,> 100 µM
23 µM,–,95 to 100%,11 µM,92%,–,–,O=C(/C=C/c1ccccc1O)CC(=O)/C=C/c1cccc(O)c1O,34 µM
25 µM,–,–,123 µM,100%,–,–,O=C(/C=C/c1ccc(O)c(O)c1)/C=C/c1cc(O)ccc1O,39 µM
27 µM,–,95 to 100%,100 µM,100%,–,–,O=C(/C=C/c1cc(O)ccc1O)CC(=O)/C=C/c1cccc(O)c1O,53 µM
27 µM,100%,95 to 100%,4.8 µM,–,–,–,O=C(/C=C/c1ccc(O)cc1)CC(=O)/C=C/c1cccc(O)c1O,8.5 µM
88 µM,–,95 to 100%,5.8 µM,56%,–,–,O=C(/C=C/c1cccc(O)c1)CC(=O)/C=C/c1cc(O)ccc1O,15 µM
–,–,–,31 µM,62%,–,–,O=C(/C=C(O)/C=C/c1ccccc1O)/C=C/c1ccc(O)c(O)c1,–
30 µM,–,95 to 100%,5.3 µM,93%,–,–,O=C(/C=C/c1cccc(O)c1O)CC(=O)/C=C/c1cccc(O)c1O,39 µM
29 µM,100%,95 to 100%,8.2 µM,–,–,–,O=C(/C=C/c1cccc(O)c1)CC(=O)/C=C/c1cccc(O)c1O,38 µM
60 µM,–,95 to 100%,54 µM,57%,–,–,O=C(/C=C/c1ccc(O)c(O)c1)CC(=O)/C=C/c1cc(O)ccc1O,51 µM
62 µM,–,–,111 µM,100%,–,–,O=C(/C=C/c1ccc(O)c(O)c1)/C=C/c1ccccc1O,34 µM
71 µM,–,–,60 µM,100%,–,–,O=C(/C=C/c1cccc(O)c1)/C=C/c1ccc(O)c(O)c1,> 100 µM
13 µM,–,–,271 µM,100%,Active,50 to 500 nm,O=C(/C=C/c1cc(O)ccc1O)/C=C/c1cccc(O)c1O,59 µM
41 µM,–,95 to 100%,0.57 µM,53%,–,–,O=C(/C=C/c1ccc(O)cc1)CC(=O)/C=C/c1cc(O)ccc1O,21 µM
57 µM,–,95 to 100%,5 µM,99%,–,–,O=C(/C=C/c1cc(O)ccc1O)CC(=O)/C=C/c1cc(O)ccc1O,24 µM
39 µM,–,–,16 µM,85%,–,–,O=C(/C=C/c1ccc(O)c(O)c1)c1cc(O)ccc1O,80 µM
28 µM,–,–,32 µM,100%,–,–,O=C(/C=C/c1cc(O)ccc1O)CC(=O)c1cccc(O)c1O,63 µM
48 µM,–,95 to 100%,4.4 µM,80%,–,–,O=C(/C=C/c1ccccc1O)CC(=O)/C=C/c1cc(O)ccc1O,38 µM
99 µM,–,–,151 µM,98%,–,–,O=C(/C=C/c1ccccc1O)/C=C/c1cccc(O)c1O,54 µM
48 µM,–,–,184 µM,90%,–,–,O=C(/C=C/c1cccc(O)c1)/C=C/c1cccc(O)c1O,46 µM
45 µM,–,–,0.19 µM,–,–,–,COc1cc(/C=C/C(=O)CC(=O)/C=C/c2ccc(O)c(OC)c2)ccc1O [CURCUMIN],42 µM
24 µM,–,–,19 µM,75%,–,–,O=C(/C=C/c1ccc(O)cc1)/C=C/c1ccc(O)c(O)c1,12 µM
10 µM,–,–,25 µM,85%,–,–,O=C(/C=C/c1cccc(O)c1)CC(=O)c1ccc(O)c(O)c1,> 100 µM
